Source: ChEMBL document CHEMBL6078646, “Target Ligand Separation and Identification of Isoforsythiaside as a Histone Lysine-Specific Demethylase 1 Covalent Inhibitor Against Breast Cancer Metastasis” (J Med Chem, 2024)
Activity calls are given as the source filed them. No cut-off for these calls is given here. Residues, ends and D or L forms follow the SMILES beside them. *: point of attachment. Cbz = O=C(OCc1ccccc1)*

Columns and labels:
[1] = molecular target: T1, Lysine-specific histone demethylase 1A (Homo sapiens, UniProt O60341); assay: Binding affinity to recombinant LSD1 (unknown origin) at S817 residue by LC-MS/MS analysis
[2] = molecular target: T1, Lysine-specific histone demethylase 1A; assay: Inhibition of recombinant His-tagged LSD1 (157 to 852 residues) (unknown origin) expressed in Escherichia coli BL21 (DE3) cells using H3K4me2 peptide as substrate incubated for 30 mins by fluorescence microplate reader analysis
[3] = test system: MDA-MB-231; assay: Upregulation of RBMS3 protein expression in human MDA-MB-231 cells at 16 uM by Western blotting analysis; type: functional, cell-based
[4] = test system: MDA-MB-231; assay: Inhibition of Twist1 production in human MDA-MB-231 cells at 16 uM by Western blotting analysis; type: functional, cell-based
[5] = test system: MDA-MB-231; assay: Inhibition of MMP2 production in human MDA-MB-231 cells at 16 uM by Western blotting analysis; type: functional, cell-based
[6] = Retention time of the compound by HPLC-MS/MS analysis; type: physicochemical
[7] = test system: MDA-MB-231; assay: Induction of LSD1 degradation in human MDA-MB-231 cells incubated for 12 hrs by Western blotting analysis; type: cell-based
[8] = test system: MDA-MB-231; assay: Antimetastatic activity against human MDA-MB-231 cells expressing luciferase xenografted in female Balb/c nude mouse assessed as reduction in fluorescence intensity in lungs at 10 mg/kg, ip administered every 3 days and measured on day 15 by bioluminescence imaging analysis relative to control; type: functional; parameters: scale not given: the % may be the effect or the level left; settings: time 15 day
[9] = test system: MDA-MB-231; assay: Antimetastatic activity against human MDA-MB-231 cells expressing luciferase xenografted in female Balb/c nude mouse assessed as reduction in lung metastasis at 10 mg/kg, ip administered every 3 days and measured on day 30 by bioluminescence imaging analysis; type: functional, organism-based; settings: time 30.0 day
[10] = test system: MDA-MB-231; assay: Antimetastatic activity against human MDA-MB-231 cells expressing luciferase xenografted in female Balb/c nude mouse assessed as reduction in number of metastatic nodules in the lung at 10 mg/kg, ip administered every 3 days and measured after 30 days by H and E staining based histopathological analysis relative to control; type: functional; parameters: scale not given: the % may be the effect or the level left; settings: time 30 day
[11] = test system: MDA-MB-231; assay: Antimetastatic activity against human MDA-MB-231 cells expressing luciferase xenografted in female Balb/c nude mouse assessed as smaller metastatic nodules in lung at 10 mg/kg, ip administered every 3 days and measured after 30 days by H and E staining based analysis; type: functional, organism-based; settings: time 30.0 day
[12] = test system: MDA-MB-231; assay: Antitumor activity against human MDA-MB-231 cells expressing luciferase xenografted in female Balb/c nude mouse assessed as increase in body weight at 10 mg/kg, ip administered every 3 days and measured after 33 days; type: functional, organism-based; settings: time 33.0 day

In the case of C[C@@H]1O[C@H](OC[C@H]2O[C@@H](OCCc3ccc(O)c(O)c3)[C@H](O)[C@@H](OC(=O)CCc3ccc(O)c(O)c3)[C@@H]2O)[C@H](O)[C@H](O)[C@H]1O, the Activity [1] is reported as “inactive” and the inhibition [2] is reported as “inactive”.

For N[C@H]1CC[C@H](N[C@@H]2C[C@H]2c2ccccc2)CC1, the AC30 [3] was “Active”, the inhibition [4] was “Active” and the inhibition [5] was “Active”.

Work on C[C@@H]1O[C@@H](OC[C@H]2O[C@@H](OCCc3ccc(O)c(O)c3)[C@H](O)[C@@H](O)[C@@H]2OC(=O)/C=C/c2ccc(O)c(O)c2)[C@H](O)[C@H](O)[C@H]1O [FORSYTHIASIDE] yielded a Retention_time [6] of 31.9 min and an IC50 [2] of 8.08 µM.

For CC(C)C[C@@H](C=O)NC(=O)[C@H](CC(C)C)NC(=O)[C@H](CC(C)C)NC(=O)OCc1ccccc1 (Cbz-Leu-Leu-Leu-aldehyde), the Activity [7] was “inactive”.

Work on COc1ccc([C@@H]2OC[C@H]3[C@@H]2CO[C@@H]3c2ccc(O[C@H]3O[C@H](CO)[C@@H](O)[C@H](O)[C@H]3O)c(OC)c2)cc1OC yielded a Retention_time [6] of 40.6 min and an IC50 [2] of 5.51 µM.

Work on C[C@@H]1O[C@@H](O[C@@H]2[C@@H](O)[C@H](OCCc3ccc(O)c(O)c3)O[C@H](CO)[C@H]2OC(=O)/C=C/c2ccc(O)c(O)c2)[C@H](O)[C@H](O)[C@H]1O [ACETOSIDE] yielded a Retention_time [6] of 25.8 min and an IC50 [2] of 3.6 µM.

With CC(=O)O[C@H]1C(=O)[C@@]2(C)[C@H]([C@H](OC(=O)c3ccccc3)[C@]3(O)C[C@H](OC(=O)[C@H](O)[C@@H](NC(=O)c4ccccc4)c4ccccc4)C(C)=C1C3(C)C)[C@]1(OC(C)=O)CO[C@@H]1C[C@@H]2O [PACLITAXEL] the Activity [8] was 89.6%, the Activity [9] was “Active” and the Activity [10] was 55.5%. For the same compound, the Activity [11] was “Active”, the IC50 [2] was 0.0296 µM and the Activity [12] was “Active; Slight Attenuation Of Body Weight Loss Observed”.
